The results in this text go back to patent US7875601B2, “Cancer treatment with epothilones” (Novartis AG, priority 1998, dated 2011).

The test system of data set [1] is A549 (Lung). Put plainly: Antiproliferative assay, A549. To be noted: A549, 5 d exposure, mean ± SD, n = 3 (epothilone B n = 2); read-out: IC50 for growth inhibition. Type of data set: cell-based, human. How it is done: (§1) Antiproliferative assays are performed as previously described (Int. J. Cancer 43, 851-6 (1989)). Briefly, cells are seeded at 1.5×10^3 cells/well into 96-well microtiter plates and incubated overnight. Compounds are added in serial dilutions on day 1. The plates are then incubated for an additional 2 to 5 days, allowing for at least one cell doubling (cell line dependent), after which the cells are fixed with 3.3% v/v glutaraldehyde, washed with water and stained with 0.05% w/v methylene blue. After washing, the dye is eluted with 3% v/v HCl and the optical density measured at 665 nm with a SpectraMax 340 (Bucherer, Basel, Switzerland). IC50 values are determined by a computerized system (SoftPro, Bucherer, Basel, Switzerland) using the formula (OD test−OD start)/(OD control−OD start)×100. IC50 is defined as the drug concentration which leads to 50% of cells per well compared to control cultures (100%) at the end of incubation period.

Data set [2] in a line: Determination of the single i.v. dose MTD in female BALB/c nude mice. Format: in vivo. The protocol: The Maximal Tolerated Dose (MTD) is determined according to standard procedures; preferably, in warm-blooded animals the MTD in case of oral or intravenous administration is determined as the Dose of a single administration where no death occurs and a loss of body weight of less than 40, preferably less than 25, percent (%) is found in the treated warm-blooded animal individual (this term here mainly referring to an animal; for humans see below).
For the MTD determination, female BALB/c nude mice or BALB/c mice (obtained from Novartis Animal Farm, Sisseln, Switzerland) are treated once intravenously with epothilone B (n=3 per dose group). The dosage is increased (2, 4, 6, 8, 10 and 12 mg/kg) and the mice are observed for the presentation of overt toxic effects for 10 days after drug treatment.

The test system of data set [3] is PC-3M (Prostate). Put plainly: Antiproliferative assay, PC-3M. Type of data set: cell-based, human. To be noted: 3 d exposure, mean ± SD, read-out: IC50 for growth inhibition. How it is done: A human androgen-independent prostate cancer cell line is used to establish subcutaneous and orthotopic models in mice. The human metastatic prostate carcinoma PC-3M is obtained from Dr. I. J. Fidler (MD Anderson Cancer Center, Houston, Tex., USA) and is cultured in Ham's F12K media supplemented with 7% v/v FBS. The PC-3M cell line is the result of isolation from liver metastasis produced in nude mice subsequent to intrasplenic injection of PC-3 cells [ATCC CRL 1435; American Type Culture Collection (Rockville, Md., USA)], and they can grow in Eagle's MEM supplemented with 10% fetal bovine serum, sodium pyruvate, non-essential amino acids, L-glutamine, a two-fold vitamin solution (Gibco Laboratories, Long Island, N.Y.) and penicillin-streptomycin (Flow Laboratories, Rockville, Md.). The PC-3M cell line is hormone-insensitive (that is, it grows in the absence of androgens). […] No normal Y chromosomes can be detected by Q-band analysis.
Antiproliferative assays are performed as previously described (Int. J. Cancer 43, 851-6 (1989)). […] After washing, the dye is eluted with 3% v/v HCl and the optical density measured at 665 nm with a SpectraMax 340 (Bucherer, Basel, Switzerland). IC50 values are determined by a computerized system (SoftPro, Bucherer, Basel, Switzerland) using the formula (OD test−OD start)/(OD control−OD start)×100. […]

Data set [4] deals with HCT-15 (Colon). Put plainly: Antiproliferative assay, HCT-15. Format: cell-based, human. To be noted: HCT-15, 5 d exposure, mean ± SD, n = 3; read-out: IC50 for growth inhibition.
Excerpt: Human colorectal adenocarcinoma cell line HCT-15 (ATCC CCL 225) is from the American Type Culture Collection (Rockville, Md., USA), and the cells are cultivated in vitro as recommended by the supplier. HCT-15 is an epithelial-like cell line. (Cancer Res. 39: 1020-25 [1979]) that is multi-drug resistant by virtue of over-expression of P-glycoprotein (P-gp, gp170, MDR-1;Anticancer Res. 11: 1309-12 [1991]; J. Biol. Chem. 264: 18031-40 [1989]; Int. J. Cancer 1991; 49: 696-703 [1991]) and glutathione-dependent resistance mechanisms (Int. J. Cancer 1991; 49: 688-95 [1991]).
as §1, with “IC50 is defined as the drug concentration which leads to 50% of cells per well compared to control cultures (100%) at the end of incubation period.” left out

Structures are written as SMILES.

Turning to `C/C(=C\c1csc(C)n1)[C@@H]1C[C@@H]2O[C@]2(C)CCC[C@H](C)[C@H](O)[C@@H](C)C(=O)C(C)(C)[C@@H](O)CC(=O)O1` [epothilone B], the IC50 in data set [1] came to 190 ± 120 pM; in data set [3] it was 3820 ± 470 pM; in data set [4], 410 ± 150 pM. The “Body Weight % Change” value in data set [2] (2 mg/kg single i.v. bolus) is 4.2 ± 2.1%; in data set [2] (4 mg/kg single i.v. bolus), −1.7 ± 2.9%; in data set [2] (6 mg/kg single i.v. bolus) it was −4.2 ± 2.1%; in data set [2] (8 mg/kg single i.v. bolus), −16.8 ± 12.2%; in data set [2] (10 mg/kg single i.v. bolus) it was −23.7 ± 13.6%; in data set [2] (12 mg/kg single i.v. bolus), −22.9 ± 3.1%. Further, the “Body Weight Δ (mean g ± SD)” value was 1.0 ± 0.5 g in data set [2] (2 mg/kg single i.v. bolus); -0.4 ± 0.6 g in data set [2] (4 mg/kg single i.v. bolus); -1.0 ± 0.5 g in data set [2] (6 mg/kg single i.v. bolus); -3.8 ± 2.7 g in data set [2] (8 mg/kg single i.v. bolus); -5.6 ± 3.3 g in data set [2] (10 mg/kg single i.v. bolus); -5.1 ± 0.6 g in data set [2] (12 mg/kg single i.v. bolus). Besides, the Mortalities is listed as 0/3 in data set [2] (2 mg/kg single i.v. bolus); 0/3 in data set [2] (4 mg/kg single i.v. bolus); 0/3 in data set [2] (6 mg/kg single i.v. bolus); 1/3 in data set [2] (8 mg/kg single i.v. bolus); 1/3 in data set [2] (10 mg/kg single i.v. bolus); 3/3 in data set [2] (12 mg/kg single i.v. bolus). Further, in data set [2] (single dose i.v., nude mice), the MTD is on record as 6 mg/kg.

The term IC50 denotes the concentration that inhibits the measured activity by half.
